Assay results from the supplement of paper PMC6045584.
± gives the standard deviation of the averaged measurements.

Legend:
XAV-939 = compound: Oc1nc(-c2ccc(C(F)(F)F)cc2)nc2c1CSCC2 [XAV-939]; experiment: surviving fraction relative to DMSO-only wells; higher = less growth inhibition; details: exposure time: 5 days
Method in brief: (§1)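 Lines were retained only if, across three screens, replicate Pearson r was >0.7 and median Z' was >0.3. Viability was measured as CellTiter-Glo luminescence and reported as surviving fraction relative to the median of DMSO-only wells. Readings followed 10 minutes at room temperature, after log-phase tumour cells seeded at 250–500 per well in 384-well plates had been exposed, from 24 hours after seeding, continuously for five days to inhibitors at 0.5, 1, 5, 10, 50, 100, 500 and 1000 nM.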

FORETINIB = compound: COc1cc2c(Oc3ccc(NC(=O)C4(C(=O)Nc5ccc(F)cc5)CC4)cc3F)ccnc2cc1OCCCN1CCOCC1 [FORETINIB]; experiment: as above; details: exposure time: 5 days
Method in brief: as §1

Row | Test System | surviving fraction (XAV-939; 0.5 nM) | surviving fraction (XAV-939; 1 nM) | surviving fraction (XAV-939; 5 nM) | surviving fraction (XAV-939; 10 nM) | surviving fraction (XAV-939; 50 nM) | surviving fraction (XAV-939; 100 nM) | surviving fraction (XAV-939; 500 nM) | surviving fraction (XAV-939; 1000 nM) | surviving fraction (FORETINIB; 0.5 nM) | surviving fraction (FORETINIB; 1 nM) | surviving fraction (FORETINIB; 5 nM) | surviving fraction (FORETINIB; 10 nM) | surviving fraction (FORETINIB; 50 nM) | surviving fraction (FORETINIB; 100 nM) | surviving fraction (FORETINIB; 500 nM) | surviving fraction (FORETINIB; 1000 nM)
1 | A549 LUNG | 0.967 ± 0.022 | 0.985 ± 0.053 | 1.01 ± 0.035 | 1.02 ± 0.087 | 1.07 ± 0.022 | 1.12 ± 0.013 | 1.084 ± 0.0087 | 1.14 ± 0.022 | 1.083 ± 0.0085 | 1.1 ± 0.018 | 1.08 ± 0.028 | 1.05 ± 0.016 | 1.06 ± 0.045 | 1.06 ± 0.041 | 0.703 ± 0.012 | 0.542 ± 0.021
2 | SG43 HEADNECK | 1.07 ± 0.11 | 1.03 ± 0.07 | 0.909 ± 0.17 | 0.806 ± 0.26 | 0.744 ± 0.04 | 0.878 ± 0.17 | 0.9 ± 0.068 | 0.761 ± 0.081 | 1.03 ± 0.26 | 0.918 ± 0.14 | 0.678 ± 0.063 | 0.732 ± 0.032 | 0.727 ± 0.15 | 0.883 ± 0.12 | 0.545 ± 0.11 | 0.247 ± 0.076
3 | JURKAT HAEMATOPOIETIC AND LYMPHOID TISSUE | 1.03 ± 0.011 | 1.051 ± 0.0042 | 1.04 ± 0.013 | 1.03 ± 0.03 | 0.9907 ± 0.0059 | 1 ± 0.018 | 0.987 ± 0.02 | 0.981 ± 0.029 | 1 ± 0.034 | 0.979 ± 0.036 | 1.02 ± 0.031 | 0.971 ± 0.023 | 0.923 ± 0.019 | 0.976 ± 0.039 | 0.61 ± 0.021 | 0.601 ± 0.03
4 | 143B BONE | 0.977 ± 0.026 | 1.02 ± 0.012 | 0.952 ± 0.14 | 1.02 ± 0.042 | 0.911 ± 0.15 | 1.03 ± 0.044 | 0.922 ± 0.069 | 1.02 ± 0.023 | 1.05 ± 0.046 | 1.03 ± 0.033 | 1.04 ± 0.015 | 1.02 ± 0.05 | 1.01 ± 0.0099 | 1.038 ± 0.0035 | 0.86 ± 0.015 | 0.755 ± 0.03
5 | SCC36 HEADNECK | 1.07 ± 0.11 | 0.964 ± 0.16 | 1.19 ± 0.045 | 1.06 ± 0.082 | 1.11 ± 0.032 | 1.1 ± 0.077 | 0.825 ± 0.029 | 0.711 ± 0.022 | 1.06 ± 0.11 | 1.11 ± 0.13 | 1.17 ± 0.02 | 1.13 ± 0.047 | 1.115 ± 0.0078 | 1.08 ± 0.061 | 0.742 ± 0.084 | 0.41 ± 0.035
6 | SUM159 BREAST | 1.17 ± 0.32 | 1.15 ± 0.19 | 1.14 ± 0.21 | 1.16 ± 0.22 | 1.12 ± 0.2 | 1.13 ± 0.18 | 1.09 ± 0.16 | 1.08 ± 0.11 | 1.13 ± 0.038 | 1.12 ± 0.046 | 1.11 ± 0.038 | 1.09 ± 0.028 | 1.071 ± 0.0061 | 1.06 ± 0.018 | 1.01 ± 0.018 | 0.566 ± 0.037
7 | HCC202 BREAST | 1.4 ± 0.094 | 1.23 ± 0.2 | 1.17 ± 0.094 | 0.972 ± 0.14 | 1.12 ± 0.18 | 0.905 ± 0.077 | 1.04 ± 0.2 | 0.953 ± 0.065 | 1.04 ± 0.11 | 1.33 ± 0.14 | 1.24 ± 0.37 | 1.02 ± 0.033 | 1.48 ± 0.2 | 1.34 ± 0.33 | 1.18 ± 0.15 | 0.995 ± 0.23
8 | OSHN BONE | 1.02 ± 0.013 | 1.07 ± 0.047 | 1.07 ± 0.037 | 1.05 ± 0.038 | 1.05 ± 0.015 | 1.09 ± 0.031 | 1.07 ± 0.038 | 1.11 ± 0.035 | 1.08 ± 0.05 | 1.07 ± 0.031 | 1.08 ± 0.018 | 1.05 ± 0.041 | 1.03 ± 0.035 | 1.01 ± 0.039 | 0.735 ± 0.057 | 0.0927 ± 0.013
9 | CADOES1 SOFT TISSUE | 0.957 ± 0.1 | 0.993 ± 0.092 | 0.816 ± 0.0092 | 0.903 ± 0.049 | 0.857 ± 0.13 | 0.899 ± 0.094 | 0.922 ± 0.076 | 0.913 ± 0.091 | 0.986 ± 0.23 | 0.887 ± 0.17 | 0.988 ± 0.25 | 0.876 ± 0.043 | 0.947 ± 0.02 | 0.795 ± 0.1 | 0.109 ± 0.011 | 0.088 ± 0.0062
10 | SCC47 HEADNECK | 0.987 ± 0.14 | 1.14 ± 0.058 | 1.08 ± 0.036 | 1.16 ± 0.027 | 1.07 ± 0.047 | 1.11 ± 0.082 | 0.962 ± 0.05 | 0.966 ± 0.093 | 1.17 ± 0.042 | 1.2 ± 0.09 | 1.18 ± 0.029 | 1.19 ± 0.06 | 1.12 ± 0.014 | 1.02 ± 0.035 | 0.97 ± 0.047 | 0.51 ± 0.024
11 | BT20 BREAST | 1.08 ± 0.19 | 1.06 ± 0.043 | 1.05 ± 0.079 | 1.05 ± 0.051 | 1.08 ± 0.14 | 1.14 ± 0.05 | 1.26 ± 0.057 | 1.23 ± 0.1 | 1.11 ± 0.032 | 1.14 ± 0.13 | 1.12 ± 0.026 | 1.13 ± 0.045 | 1.22 ± 0.12 | 1.13 ± 0.037 | 0.382 ± 0.091 | 0.136 ± 0.017
